According to ChEMBL document CHEMBL4017512 (J Med Chem, 2017):

Columns and labels:
[1] = Cytotoxicity against human HCT116/VM46 cells assessed as reduction in cell viability after 72 hrs by phosphatase assay; type: cell-based; details: HCT-116/VM46, 72 h
HCT-116 = assay: Antiproliferative activity against human HCT116 cells after 72 hrs by phosphatase assay; type: functional, cell-based; details: HCT-116, 72 h
L1210 = assay: Antiproliferative activity against mouse L1210 cells after 72 hrs by phosphatase assay; type: functional, cell-based; details: L1210, 72 h

Compound	IC50 (HCT-116)	IC50 (L1210)	IC50 [1]
CCOc1ccc(C(=O)N[C@@]2(CC)C[C@H]3CN(CCc4c([nH]c5ccccc45)[C@@](C(=O)OC)(c4cc5c(cc4OC)N(C)[C@H]4[C@@](O)(C(=O)OC)[C@H](OC(C)=O)[C@]6(CC)C=CCN7CC[C@]54[C@@H]76)C3)C2)cc1Cl	6.1 nM	4.2 nM	40 nM
CC[C@]1(NC(=O)c2nc3ccccc3s2)C[C@H]2CN(CCc3c([nH]c4ccccc34)[C@@](C(=O)OC)(c3cc4c(cc3OC)N(C)[C@H]3[C@@](O)(C(=O)OC)[C@H](OC(C)=O)[C@]5(CC)C=CCN6CC[C@]43[C@@H]65)C2)C1	80 nM	180 nM	470 nM
CC[C@]1(NS(=O)(=O)c2ccc(C)cc2)C[C@H]2CN(CCc3c([nH]c4ccccc34)[C@@](C(=O)OC)(c3cc4c(cc3OC)N(C)[C@H]3[C@@](O)(C(=O)OC)[C@H](OC(C)=O)[C@]5(CC)C=CCN6CC[C@]43[C@@H]65)C2)C1	30 nM	40 nM	330 nM
CCC(=O)N[C@@]1(CC)C[C@H]2CN(CCc3c([nH]c4ccccc34)[C@@](C(=O)OC)(c3cc4c(cc3OC)N(C)[C@H]3[C@@](O)(C(=O)OC)[C@H](OC(C)=O)[C@]5(CC)C=CCN6CC[C@]43[C@@H]65)C2)C1	60 nM	60 nM	2100 nM
CC[C@]1(NC(=O)c2ccc3c(c2)CCO3)C[C@H]2CN(CCc3c([nH]c4ccccc34)[C@@](C(=O)OC)(c3cc4c(cc3OC)N(C)[C@H]3[C@@](O)(C(=O)OC)[C@H](OC(C)=O)[C@]5(CC)C=CCN6CC[C@]43[C@@H]65)C2)C1	0.25 nM	0.3 nM	2.4 nM
CC[C@]1(NS(=O)(=O)c2c(C)cc(C)cc2C)C[C@H]2CN(CCc3c([nH]c4ccccc34)[C@@](C(=O)OC)(c3cc4c(cc3OC)N(C)[C@H]3[C@@](O)(C(=O)OC)[C@H](OC(C)=O)[C@]5(CC)C=CCN6CC[C@]43[C@@H]65)C2)C1	580 nM	500 nM	710 nM
CCCc1ccc(C(=O)N[C@@]2(CC)C[C@H]3CN(CCc4c([nH]c5ccccc45)[C@@](C(=O)OC)(c4cc5c(cc4OC)N(C)[C@H]4[C@@](O)(C(=O)OC)[C@H](OC(C)=O)[C@]6(CC)C=CCN7CC[C@]54[C@@H]76)C3)C2)cc1	4.8 nM	4.3 nM	35 nM
CC[C@]1(NC(=O)c2ccc(OC(F)F)cc2)C[C@H]2CN(CCc3c([nH]c4ccccc34)[C@@](C(=O)OC)(c3cc4c(cc3OC)N(C)[C@H]3[C@@](O)(C(=O)OC)[C@H](OC(C)=O)[C@]5(CC)C=CCN6CC[C@]43[C@@H]65)C2)C1	1.7 nM	5.9 nM	17 nM
CCOc1ccc(C(=O)N[C@@]2(CC)C[C@H]3CN(CCc4c([nH]c5ccccc45)[C@@](C(=O)OC)(c4cc5c(cc4OC)N(C)[C@H]4[C@@](O)(C(=O)OC)[C@H](OC(C)=O)[C@]6(CC)C=CCN7CC[C@]54[C@@H]76)C3)C2)cc1	0.6 nM	0.6 nM	2.8 nM
CC[C@]1(NC(=O)c2ccc(OC)c(OC)c2)C[C@H]2CN(CCc3c([nH]c4ccccc34)[C@@](C(=O)OC)(c3cc4c(cc3OC)N(C)[C@H]3[C@@](O)(C(=O)OC)[C@H](OC(C)=O)[C@]5(CC)C=CCN6CC[C@]43[C@@H]65)C2)C1	0.07 nM	0.06 nM	1.4 nM
CC[C@]1(NC(=O)c2cn(C)cn2)C[C@H]2CN(CCc3c([nH]c4ccccc34)[C@@](C(=O)OC)(c3cc4c(cc3OC)N(C)[C@H]3[C@@](O)(C(=O)OC)[C@H](OC(C)=O)[C@]5(CC)C=CCN6CC[C@]43[C@@H]65)C2)C1	50 nM	80 nM	> 1000 nM
CC[C@]1(NC(=O)c2ccc(NC)cc2)C[C@H]2CN(CCc3c([nH]c4ccccc34)[C@@](C(=O)OC)(c3cc4c(cc3OC)N(C)[C@H]3[C@@](O)(C(=O)OC)[C@H](OC(C)=O)[C@]5(CC)C=CCN6CC[C@]43[C@@H]65)C2)C1	0.33 nM	0.38 nM	6.2 nM
CC[C@]1(NC(=O)c2ccc(S(=O)(=O)F)cc2)C[C@H]2CN(CCc3c([nH]c4ccccc34)[C@@](C(=O)OC)(c3cc4c(cc3OC)N(C)[C@H]3[C@@](O)(C(=O)OC)[C@H](OC(C)=O)[C@]5(CC)C=CCN6CC[C@]43[C@@H]65)C2)C1	30 nM	20 nM	310 nM
CC[C@]1(O)C[C@H]2CN(CCc3c([nH]c4ccc(F)cc34)[C@@](C(=O)OC)(c3cc4c(cc3OC)N(C)[C@H]3[C@@](O)(C(=O)OC)[C@H](OC(C)=O)[C@]5(CC)C=CCN6CC[C@]43[C@@H]65)C2)C1	0.7 nM	0.6 nM	30 nM
CC[C@]1(NC(=O)c2ccc(OC(C)C)cc2)C[C@H]2CN(CCc3c([nH]c4ccccc34)[C@@](C(=O)OC)(c3cc4c(cc3OC)N(C)[C@H]3[C@@](O)(C(=O)OC)[C@H](OC(C)=O)[C@]5(CC)C=CCN6CC[C@]43[C@@H]65)C2)C1	0.8 nM	0.7 nM	6.6 nM
CC[C@]1(NC(=O)c2ccc(N)cc2)C[C@H]2CN(CCc3c([nH]c4ccccc34)[C@@](C(=O)OC)(c3cc4c(cc3OC)N(C)[C@H]3[C@@](O)(C(=O)OC)[C@H](OC(C)=O)[C@]5(CC)C=CCN6CC[C@]43[C@@H]65)C2)C1	0.4 nM	0.4 nM	4.8 nM
CC[C@]1(NC(=O)C2CCCCC2)C[C@H]2CN(CCc3c([nH]c4ccccc34)[C@@](C(=O)OC)(c3cc4c(cc3OC)N(C)[C@H]3[C@@](O)(C(=O)OC)[C@H](OC(C)=O)[C@]5(CC)C=CCN6CC[C@]43[C@@H]65)C2)C1	70 nM	55 nM	760 nM
CC[C@]1(NC(=O)c2cocn2)C[C@H]2CN(CCc3c([nH]c4ccccc34)[C@@](C(=O)OC)(c3cc4c(cc3OC)N(C)[C@H]3[C@@](O)(C(=O)OC)[C@H](OC(C)=O)[C@]5(CC)C=CCN6CC[C@]43[C@@H]65)C2)C1	4 nM	4.5 nM	90 nM

Further lines, with some results ahead:

IC50 (HCT-116)	IC50 (L1210)	Compound	IC50 [1]
1.9 nM	3.1 nM	CC[C@]1(NC(=O)c2cc3ccccc3s2)C[C@H]2CN(CCc3c([nH]c4ccccc34)[C@@](C(=O)OC)(c3cc4c(cc3OC)N(C)[C@H]3[C@@](O)(C(=O)OC)[C@H](OC(C)=O)[C@]5(CC)C=CCN6CC[C@]43[C@@H]65)C2)C1	9.2 nM
8.7 nM	7.5 nM	CC[C@]1(NC(=O)c2cccc(C(C)C)c2)C[C@H]2CN(CCc3c([nH]c4ccccc34)[C@@](C(=O)OC)(c3cc4c(cc3OC)N(C)[C@H]3[C@@](O)(C(=O)OC)[C@H](OC(C)=O)[C@]5(CC)C=CCN6CC[C@]43[C@@H]65)C2)C1	65 nM
5.1 nM	5.4 nM	CC[C@]1(NC(=O)c2ccc3ocnc3c2)C[C@H]2CN(CCc3c([nH]c4ccccc34)[C@@](C(=O)OC)(c3cc4c(cc3OC)N(C)[C@H]3[C@@](O)(C(=O)OC)[C@H](OC(C)=O)[C@]5(CC)C=CCN6CC[C@]43[C@@H]65)C2)C1	70 nM
40 nM	60 nM	CC[C@]1(NC(=O)c2ccc(Br)c(Br)c2)C[C@H]2CN(CCc3c([nH]c4ccccc34)[C@@](C(=O)OC)(c3cc4c(cc3OC)N(C)[C@H]3[C@@](O)(C(=O)OC)[C@H](OC(C)=O)[C@]5(CC)C=CCN6CC[C@]43[C@@H]65)C2)C1	80 nM
9 nM	30 nM	CC[C@]1(NC(=O)c2ccnnc2)C[C@H]2CN(CCc3c([nH]c4ccccc34)[C@@](C(=O)OC)(c3cc4c(cc3OC)N(C)[C@H]3[C@@](O)(C(=O)OC)[C@H](OC(C)=O)[C@]5(CC)C=CCN6CC[C@]43[C@@H]65)C2)C1	700 nM
3.2 nM	3.1 nM	CC[C@]1(NC(=O)c2ccc(Cl)cc2)C[C@H]2CN(CCc3c([nH]c4ccccc34)[C@@](C(=O)OC)(c3cc4c(cc3OC)N(C)[C@H]3[C@@](O)(C(=O)OC)[C@H](OC(C)=O)[C@]5(CC)C=CCN6CC[C@]43[C@@H]65)C2)C1	50 nM
1.1 nM	1.8 nM	CC[C@]1(NC(=O)c2cc3ccccc3o2)C[C@H]2CN(CCc3c([nH]c4ccccc34)[C@@](C(=O)OC)(c3cc4c(cc3OC)N(C)[C@H]3[C@@](O)(C(=O)OC)[C@H](OC(C)=O)[C@]5(CC)C=CCN6CC[C@]43[C@@H]65)C2)C1	15 nM
6.4 nM	6.2 nM	CC[C@]1(NC(=O)c2cccc(C(F)(F)F)c2)C[C@H]2CN(CCc3c([nH]c4ccccc34)[C@@](C(=O)OC)(c3cc4c(cc3OC)N(C)[C@H]3[C@@](O)(C(=O)OC)[C@H](OC(C)=O)[C@]5(CC)C=CCN6CC[C@]43[C@@H]65)C2)C1	40 nM
60 nM	45 nM	CC[C@]1(NC(=O)c2ccccc2C(F)(F)F)C[C@H]2CN(CCc3c([nH]c4ccccc34)[C@@](C(=O)OC)(c3cc4c(cc3OC)N(C)[C@H]3[C@@](O)(C(=O)OC)[C@H](OC(C)=O)[C@]5(CC)C=CCN6CC[C@]43[C@@H]65)C2)C1	540 nM
0.6 nM	1.8 nM	CC[C@]1(NC(=O)c2cncs2)C[C@H]2CN(CCc3c([nH]c4ccccc34)[C@@](C(=O)OC)(c3cc4c(cc3OC)N(C)[C@H]3[C@@](O)(C(=O)OC)[C@H](OC(C)=O)[C@]5(CC)C=CCN6CC[C@]43[C@@H]65)C2)C1	45 nM
0.8 nM	1.6 nM	CC[C@]1(NC(=O)c2ccc(NC(C)=O)cc2)C[C@H]2CN(CCc3c([nH]c4ccccc34)[C@@](C(=O)OC)(c3cc4c(cc3OC)N(C)[C@H]3[C@@](O)(C(=O)OC)[C@H](OC(C)=O)[C@]5(CC)C=CCN6CC[C@]43[C@@H]65)C2)C1	55 nM
0.8 nM	0.6 nM	CC[C@]1(NC(=O)c2ccc3c(c2)OCO3)C[C@H]2CN(CCc3c([nH]c4ccccc34)[C@@](C(=O)OC)(c3cc4c(cc3OC)N(C)[C@H]3[C@@](O)(C(=O)OC)[C@H](OC(C)=O)[C@]5(CC)C=CCN6CC[C@]43[C@@H]65)C2)C1	8.7 nM
